This is an account of results in patent US20240182948A1, “METHODS AND COMPOSITIONS FOR DETECTION OF TUMOR DNA” (The Broad Institute, Inc., priority 2021, published 2024).

The subject of the experiment is macrophages co-incubated with apoptotic KPLG cells. The experiment in a line: Chloroquine treatment of macrophages after co-incubation with apoptotic KPLG cells; recovery of tumor DNA from cell fractions. Type of experiment: cell-based, murine. The procedure:
FIG. 9A: Cytoplasmic DNA mass recovered from macrophages with or without 25 μM CQ treatment for 3 hours. FIG. 9B: Nuclear DNA mass recovered from macrophages with or without 25 μM CQ treatment for 3 hours. FIG. 9C: Cytoplasmic KRAS G12D to WT ratio. Apoptotic KPLG cells were washed away after 1 hour of co-incubation with macrophages before CQ treatment. FIG. 9D: Nuclear KRAS G12D to WT ratio. Apoptotic KPLG cells were washed away after 1 hour of co-incubation with macrophages before CQ treatment.
To test if pharmacologically blocking the DNA degradation pathway could lead to increased recovery of tumor DNA in macrophages, apoptotic KPLG cells were co-incubated with macrophage cells for 1 hour, after which apoptotic cells were washed away, and macrophages were treated either with or without 25 μM chloroquine.
Cell lines: KPLG cells were kindly provided by the Jacks Laboratory at the Massachusetts Institute of Technology (MIT). BMDM were harvested from femurs of wild-type […] mice and DNase 2a−/− mice. KPLG cells were cultured in DMEM supplemented with 10% fetal bovine serum (Gibco) and 1% penicillin/streptomycin (Corning); BMDM cells were cultured in DMEM supplemented with 10% fetal bovine serum (Gibco) and 1% penicillin/streptomycin (Corning), and 15% L929 conditioned medium. All cells were cultured in a humidified atmosphere of 95% air and 5% CO2 at 37° C. The KPLG cell line was declared pathogen free after being subjected to murine pathogen testing by the Diagnostic Laboratory of the Division of Comparative Medicine (MIT).
Cell fractionation and DNA extraction: Cells were collected by centrifugation at 3000×g for 7 min. The cells were lysed using four volumes of lysis buffer (20 mM Tris-HCl, pH 7.4, 10 mM KCl, 2 mM MgCl2, 1 mM DTT, and 1 mM EDTA) for 20 min. on ice. The nuclear pellet was collected by centrifugation twice at 800×g for 5 min. The mitochondrial fraction was collected by centrifugation twice at 10,000×g for 10 min. The collected supernatant was used as the cytoplasmic fraction. […]

Each structure is given as a SMILES string.

With `CCN(CC)CCCC(C)Nc1ccnc2cc(Cl)ccc12` (stereo not drawn) [Chloroquine, chloroquine], for the setting “25 μM CQ treatment for 3 hours, legend of FIGS. 9A-9D”, the “digestion of cytoplasmic tumor-derived DNA by macrophages” value is “inhibits digestion”. Moreover, the “total cytoplasmic DNA mass recovered from macrophages” value (25 μM chloroquine vs. no treatment, apoptotic KPLG cells washed away after 1 hour of co-incubation, FIG. 9A: treatment for 3 hours) is reported as “increase”. For the same compound, the “presence of KRAS G12D in the cytoplasmic DNA fraction of macrophages (KRAS G12D to WT ratio)” value (25 μM chloroquine vs. no treatment, apoptotic KPLG cells washed away after 1 hour of co-incubation, TaqMan qPCR) was “increase”.
